The values that follow come from patent US20050074879A1, “Antisense oligonucleotide modulation of STAT3 expression” (priority 2000, published 2005).

Oligonucleotides are written 5' to 3', each unit as a sugar letter and its base; * is a phosphorothioate linkage, no mark a phosphodiester; rarer units and linkages stand in square brackets, end groups in braces. Plain capitals give the bases only. e = 2'-O-(2-methoxyethyl) (MOE); [5mC] = 5-methylcytosine; d = 2'-deoxy (DNA)

In the data set the test system is Human STAT3 mRNA. Put plainly: Inhibition of human STAT3 mRNA levels in A549 cells, 75 nM, real-time PCR (Table 13). Type of data set: cell-based. The settings on record: 75 nM oligonucleotide with LIPOFECTIN, real-time PCR PPS 199, percent inhibition relative to untreated control cells, average of 2 experiments. How it is done: Oligonucleotide activity is assayed by quantitation of STAT3 mRNA levels by real-time PCR (RT-PCR) using the ABI PRISMS 7700 Sequence Detection System (PE-Applied Biosystems, Foster City, Calif.) according to manufacturer's instructions. This is a closed-tube, non-gel-based, fluorescence detection system which allows high-throughput quantitation of polymerase chain reaction (PCR) products in real-time. As opposed to standard PCR, in which amplification products are quantitated after the PCR is completed, products in RT-PCR are quantitated as they accumulate. This is accomplished by including in the PCR reaction an oligonucleotide probe that anneals specifically between the forward and reverse PCR primers, and contains two fluorescent dyes. A reporter dye (e.g., JOE or FAM, PE-Applied Biosystems, Foster City, Calif.) is attached to the 5′ end of the probe and a quencher dye (e.g., TAMRA, PE-Applied Biosystems, Foster City, Calif.) is attached to the 3′ end of the probe. When the probe and dyes are intact, reporter dye emission is quenched by the proximity of the 3′ quencher dye. During amplification, annealing of the probe to the target sequence creates a substrate that can be cleaved by the 5′-exonuclease activity of Taq polymerase. […] With each cycle, additional reporter dye molecules are cleaved from their respective probes, and the fluorescence intensity is monitored at regular (six-second) intervals by laser optics built into the ABI PRISM™ 7700 Sequence Detection System. In each assay, a series of parallel reactions containing serial dilutions of mRNA from untreated control samples generates a standard curve that is used to quantitate the percent inhibition after antisense oligonucleotide treatment of test samples.
RT-PCR reagents are obtained from PE-Applied Biosystems, Foster City, Calif. RT-PCR reactions are carried out by adding 25 l PCR cocktail (1× TAQMAN7 buffer A, 5.5 mM MgCl2, 300 µM each of DATP, dCTP and dGTP, 600 µM of dUTP, 100 nM each of forward primer, reverse primer, and probe, 20 U RNAse inhibitor, 1.25 units AMPLITAQ GOLD7, and 12.5 U MuLV reverse transcriptase) to 96 well plates containing 25 l poly(A) mRNA solution. The RT reaction is carried out by incubation for 30 minutes at 48° C. following a 10 minute incubation at 95° C. to activate the AMPLITAQ GOLD7, 40 cycles of a two-step PCR protocol are carried out: 95° C. for 15 seconds (denaturation) followed by 60° C. for 1.5 minutes (annealing/extension).
The compounds were analyzed for their effect on STAT3 mRNA levels in A549 cells. The human lung carcinoma cell line A549 was obtained from the American Type Culture Collection (ATCC) (Manassas, Va.). A549 cells were routinely cultured in DMEM basal media (Invitrogen Corporation, Carlsbad, Calif.) supplemented with 10% fetal calf serum (Invitrogen Corporation, Carlsbad, Calif.), 100 units/mL penicillin, and 100 ug/mL streptomycin (Invitrogen Corporation, Carlsbad, Calif.). Cells were routinely passaged by trypsinization and dilution when they reached 90% confluence.
When cells reached 65-75% confluency, they were treated with oligonucleotide. For cells grown in 96-well plates, wells were washed once with […] OPTI-MEM-1 reduced-serum medium (Invitrogen Corporation, Carlsbad, Calif.) and then treated with 130 µL of OPTI-MEM-1 containing […] LIPOFECTIN (Invitrogen Corporation, Carlsbad, Calif.) and 75 nM of the compounds in Table 13. Cells were treated and data were obtained in duplicate. Untreated cells served as controls. After 4-7 hours of treatment at 37° C., the medium was replaced with fresh medium. Cells were harvested 16-24 hours after oligonucleotide treatment. STAT3 mRNA levels in A549 cells were quantitated by real-time PCR as described by other methods herein.
Probes and primers to human STAT3 were designed to hybridize to a human STAT3 sequence, using published sequence information (incorporated herein as SEQ ID NO: 1). For STAT 3 the PCR primers were: • forward primer: […]

On to “337245 (antisense eA*eG*e[5mC]*e[5mC]*eT*d[5mC]*dT*dG*d[5mC]*dA*d[5mC]*d[5mC]*d[5mC]*dT*d[5mC]*eA*eT*eG*eT*eT) [compound 337245]”, for which the “% Inhib (inhibition of human STAT 3 mRNA levels)” value (“% Inhib” below) turned out to be 77%. On to “337246 (antisense e[5mC]*eT*e[5mC]*e[5mC]*eT*dA*dA*dA*dT*dT*dA*dA*dG*dA*dA*e[5mC]*eT*eT*e[5mC]*eT) [compound 337246]”, for which the “% Inhib” value is 37%. To “337248 (antisense eT*eA*eT*eT*eG*dA*dA*dA*dA*dT*dT*dA*dT*d[5mC]*dT*eA*eA*eT*eT*e[5mC]) [compound 337248]” belongs 0%; to “337249 (antisense eT*eT*eG*eG*eG*d[5mC]*d[5mC]*dA*dT*d[5mC]*d[5mC]*dT*dG*d[5mC]*dT*eA*eA*eA*eA*eT) [compound 337249]”, 48%. As for “337250 (antisense eA*eT*eT*e[5mC]*eA*d[5mC]*dT*dT*dG*d[5mC]*d[5mC]*dT*d[5mC]*d[5mC]*dT*eT*eG*eA*e[5mC]*eT) [compound 337250]”, the “% Inhib” value was determined as 51%.

Consider “337251 (antisense eA*eT*eG*e[5mC]*e[5mC]*d[5mC]*dT*dT*dA*d[5mC]*dT*d[5mC]*dT*d[5mC]*d[5mC]*eG*e[5mC]*eA*eT*e[5mC]) [compound 337251]”, for which the “% Inhib” value worked out at 74%. Consider “337252 (antisense e[5mC]*eT*eG*eA*eA*d[5mC]*dT*dT*dA*d[5mC]*d[5mC]*d[5mC]*dT*d[5mC]*dT*eG*eA*eG*eA*eG) [compound 337252]”, for which the “% Inhib” value is 60%. Take “337253 (antisense eA*eA*eA*eT*eG*d[5mC]*dG*dG*dA*d[5mC]*d[5mC]*d[5mC]*dA*dA*dG*eA*eG*eT*eT*eT) [compound 337253]”: the “% Inhib” value was 49%.

As for “337254 (antisense e[5mC]*eT*eT*eG*eT*dT*d[5mC]*d[5mC]*d[5mC]*dT*d[5mC]*dG*dG*d[5mC]*dT*eG*e[5mC]*eG*eA*e[5mC]) [compound 337254]”, the “% Inhib” value amounted to 57%. With “337255 (antisense eG*e[5mC]*e[5mC]*eT*eG*dT*d[5mC]*d[5mC]*dA*dG*dG*dA*dT*d[5mC]*d[5mC]*eG*eG*eT*eT*eG) [compound 337255]”, the “% Inhib” value was determined as 75%. In the case of “337256 (antisense eG*eA*eA*eG*eG*dG*d[5mC]*d[5mC]*dT*d[5mC]*dT*d[5mC]*d[5mC]*dG*dA*eG*e[5mC]*e[5mC]*eG*eA) [compound 337256]”, the “% Inhib” value is on record as 67%. To “337257 (antisense eG*eG*e[5mC]*eG*eG*d[5mC]*dG*dA*dG*dG*d[5mC]*dT*d[5mC]*d[5mC]*d[5mC]*eT*e[5mC]*eA*eG*eG) [compound 337257]” belongs 80%; to “337258 (antisense eT*e[5mC]*e[5mC]*eG*eG*d[5mC]*dA*dG*dA*dG*dG*d[5mC]*d[5mC]*dG*dA*eG*eA*eG*eG*e[5mC]) [compound 337258]”, 56%. The same measure for “337259 (antisense e[5mC]*e[5mC]*eA*eT*e[5mC]*d[5mC]*dT*dG*d[5mC]*dT*dA*dA*dA*dA*dT*e[5mC]*eA*eG*eG*eG) [compound 337259]”: 58%. To “337260 (antisense e[5mC]*e[5mC]*eA*eT*eT*dG*dG*dG*d[5mC]*d[5mC]*dA*dT*d[5mC]*d[5mC]*dT*eG*e[5mC]*eT*eA*eA) [compound 337260]” belongs 62%; to “337261 (antisense eT*eG*eT*e[5mC]*eA*dA*dG*d[5mC]*dT*dG*d[5mC]*dT*dG*dT*dA*eG*e[5mC]*eT*eG*eA) [compound 337261]”, 79%; to “337262 (antisense eA*eA*e[5mC]*eT*eG*d[5mC]*d[5mC]*dG*d[5mC]*dA*dG*d[5mC]*dT*d[5mC]*d[5mC]*eA*eT*eT*eG*eG) [compound 337262]”, 74%.

Consider “337263 (antisense eT*e[5mC]*eT*eT*eG*dA*d[5mC]*dT*d[5mC]*dT*d[5mC]*dA*dA*dT*d[5mC]*e[5mC]*eA*eA*eG*eG) [compound 337263]”, for which the “% Inhib” value was 79%. To “337264 (antisense e[5mC]*eG*e[5mC]*eA*eT*dA*dT*dG*d[5mC]*d[5mC]*d[5mC]*dA*dA*dT*d[5mC]*eT*eT*eG*eA*e[5mC]) [compound 337264]” belongs 81%. To “337265 (antisense e[5mC]*eG*eA*e[5mC]*eT*d[5mC]*dT*dT*dG*d[5mC]*dA*dG*dG*dA*dA*eG*e[5mC]*eG*eG*e[5mC]) [compound 337265]” belongs 92%; to “337266 (antisense eT*e[5mC]*eG*eT*eA*dG*dA*dT*dT*dG*dT*dG*d[5mC]*dT*dG*eA*eT*eA*eG*eA) [compound 337266]”, 61%.

For the substance “337267 (antisense eA*eG*eA*eA*eA*d[5mC]*dT*dG*d[5mC]*dT*dT*dG*dA*dT*dT*e[5mC]*eT*eT*e[5mC]*eG) [compound 337267]”, the “% Inhib” value amounted to 62%.

Turning to “337268 (antisense eG*eA*eT*eA*e[5mC]*d[5mC]*dT*dG*d[5mC]*dT*d[5mC]*dT*dG*dA*dA*eG*eA*eA*eA*e[5mC]) [compound 337268]”, the “% Inhib” value stood at 75%.

With “337269 (antisense eT*eT*e[5mC]*eT*e[5mC]*dA*dA*dG*dA*dT*dA*d[5mC]*d[5mC]*dT*dG*e[5mC]*eT*e[5mC]*eT*eG) [compound 337269]”, the “% Inhib” value is on record as 74%.

Consider “337271 (antisense eG*eT*eG*eA*eT*dT*d[5mC]*dT*dT*d[5mC]*d[5mC]*d[5mC]*dA*d[5mC]*dA*eG*eG*e[5mC]*eA*e[5mC]) [compound 337271]”, for which the “% Inhib” value worked out at 85%.

Turning to “337272 (antisense eA*eT*e[5mC]*eT*eG*d[5mC]*dT*dG*d[5mC]*dT*dT*d[5mC]*dT*d[5mC]*d[5mC]*eG*eT*e[5mC]*eA*e[5mC]) [compound 337272]”, the “% Inhib” value is 74%. The same measure for “337273 (antisense e[5mC]*e[5mC]*eA*eG*e[5mC]*dA*dT*d[5mC]*dT*dG*d[5mC]*dT*dG*d[5mC]*dT*eT*e[5mC]*eT*e[5mC]*e[5mC]) [compound 337273]”: 73%; for “337274 (antisense eT*eG*eA*eA*eG*dG*dT*dG*d[5mC]*dT*dG*d[5mC]*dT*d[5mC]*d[5mC]*eA*eG*e[5mC]*eA*eT) [compound 337274]”: 74%. Turning to “337275 (antisense eT*eT*e[5mC]*eT*eG*dT*dT*d[5mC]*dT*dA*dG*dA*dT*d[5mC]*d[5mC]*eT*eG*e[5mC]*eA*e[5mC]) [compound 337275]”, the “% Inhib” value is recorded as 82%. To “337277 (antisense eA*eA*eG*eT*e[5mC]*dA*dT*d[5mC]*d[5mC]*dT*dG*dG*dA*dG*dA*eT*eT*e[5mC]*eT*e[5mC]) [compound 337277]” belongs 79%. To “337278 (antisense eA*eA*eT*e[5mC]*eA*dA*dA*dG*dT*d[5mC]*dA*dT*d[5mC]*d[5mC]*dT*eG*eG*eA*eG*eA) [compound 337278]” belongs 69%.
